For assay [1], the system named is C2C12 근육 세포. Nature of the assay: C2C12 cell proliferation assay (Alamar Blue). The conditions noted are these: 2, 5, 50 and 100 ng/ml; 2000 cells/well; medium with IGF-I 2 ng/ml; 36 h; vs medium-only control. In kind it is cell-based, mouse.
Assay [2] relates to C2C12 근육 세포. Nature of the assay: C2C12 cell proliferation assay (BrdU incorporation). In kind it is cell-based, mouse. The following applies: 0.1, 1, 10 and 100 ng/ml; 500 cells/well; 24 h stimulation, 5 h BrdU.
A further assay relates to FSHD 사지. Nature of the assay: Myogenic progenitor (desmin-positive) cell proliferation, FSHD muscle primary culture. In kind it is cell-based, human. The conditions noted are these: peptide 10 ng/ml alone, untreated 11.7±1.3%.
For assay [3], the system named is 선천성 근이영양증 (CMD)에서 유래된 초대 배양물. Nature of the assay: Myogenic progenitor (desmin-positive) cell proliferation, CMD muscle primary culture. In kind it is cell-based, human. The conditions noted are these: peptide 10 ng/ml alone, untreated 10.4±1.7%.
The subject of another assay is 래트 기관형적 해마 배양물. Nature of the assay: In vitro neuroprotection against TBH oxidative stress in organotypic hippocampal slices (PI staining). In kind it is cell-based, Wistar rat. The conditions noted are these: 100 ng/ml.
The test system of the next assay is 정상 하지 (사두근) 초대 배양물. Nature of the assay: Myogenic progenitor (desmin-positive) cell proliferation, normal limb muscle primary culture. In kind it is cell-based, human. The following applies: normal limb (quadriceps); peptide 10 ng/ml alone; untreated 38.4±2.5%.
The test system of a further assay is ALS 사지. Nature of the assay: Myogenic progenitor (desmin-positive) cell proliferation, ALS muscle primary culture. In kind it is cell-based, human. The following applies: peptide 10 ng/ml alone, untreated 4.8±1.1%.
A further assay deals with HSMM 세포. Nature of the assay: Human primary cell (HSMM) proliferation assay (BrdU incorporation). In kind it is cell-based. The following applies: 48 h; A5 at doses up to 10 ng/ml (P < 0.1); IGF-I alone at any dose. A general note: Incorporation of labelled thymidine or its analogues reports DNA synthesis.
In a further assay the test system is 뇌 허혈의 게르빌루스쥐 모델. Nature of the assay: Neuroprotection in gerbil model of brain ischaemia (surviving CA1 neurons). The conditions noted are these: 25 µg injection, 7 days after ischaemic insult. In kind it is in vivo, Mongolian gerbil.
The subject of another assay is 초대 인간 근육 세포 배양물. Nature of the assay: Creatine phosphokinase (CPK) assay of myogenic differentiation / myotube formation. The following applies: peptide alone in differentiation medium, 48 h; IGF-I at 10 ng/ml. In kind it is cell-based, human.
A further assay relates to 경색된 양 심장. Nature of the assay: Cardioprotection after myocardial infarction in sheep (ejection fraction by echocardiography). In kind it is in vivo. The conditions noted are these: intracoronary injection 15 min after infarction, day 6 vs day before procedure.
In the next assay the test system is 정상 두개안면 (교근) 초대 배양물. Nature of the assay: Myogenic progenitor (desmin-positive) cell proliferation, normal craniofacial muscle primary culture. In kind it is cell-based, human. The following applies: normal craniofacial (masseter); peptide 10 ng/ml alone; untreated 49.8±2.4%.
The test system of the next assay is mdx 마우스의 근이영양성 근육. Nature of the assay: Tetanic force of dystrophic muscle after intramuscular injection in mdx mice. The conditions noted are these: i.m. twice weekly for 3 weeks. In kind it is in vivo, mouse.
The subject of another assay is 단핵성 근육모세포 (수반 세포). Nature of the assay: Biological activity: induction of mononucleated myoblast replication (Alamar Blue). In kind it is cell-based. Also noted: key to biological activity score (scale 0 to 3): 0: 6시간에서 측정가능한 세포 수 증가 없음; 1: 4시간에서 유의한 세포 수 증가; 2시간에서 유의한 세포 수 증가; 3: 1시간에서 유의한 세포 수 증가. The conditions noted are these: cell number by Alamar Blue.

Where no end group is shown, it is not given here.

GSTFEEHK [DMGF]: the “induction of C2C12 cell proliferation (Alamar Blue fluorescence)” value with C2C12 근육 세포 [1] was “세포 증식을 유도하였다”. Turning to GSTFEEHK [펩티드 A8], in the assay on C2C12 근육 세포 [2], the “induction of C2C12 cell proliferation (BrdU incorporation)” value was “세포 증식을 유도하였다”. As for GSTFEERK [펩티드 A2], in the assay with C2C12 근육 세포 [2], the “induction of C2C12 cell proliferation (BrdU incorporation)” value was “세포 증식을 유도하였다”. “IGF-I: IGF-I receptor binding domain encoded by exons 3 and 4, about 70 amino acids; from PeproTech or Sigma-Aldrich”: the “desmin-positive cells as % of total (DAPI-positive) cells” value in the assay with FSHD 사지 is 14.1±1.6 %; in [3], 13.2±1.7 %; with 정상 하지 (사두근) 초대 배양물, 47.1±3.5 %; in the assay with ALS 사지, 4.7±1.4 %; in the assay with 정상 두개안면 (교근) 초대 배양물, 58.4±4.2 %. In the assay with 래트 기관형적 해마 배양물 (TBH 3 h, CA1 region, 24 h), the “protection against TBH-induced cell death” value was 72 %. In the assay with 래트 기관형적 해마 배양물 (cell death assessed 24 h and 48 h after start), the “time over which the neuroprotective effect was marked” value is on record as ≤ 24 시간. Further, the “effect on HSMM proliferation (BrdU incorporation), used alone” value in the assay with HSMM 세포 was “유의한 효과가 없었다”. The “surviving CA1 neurons as % of control neuron number, side not stated” value with 뇌 허혈의 게르빌루스쥐 모델 is recorded as 15.8 %. The “surviving CA1 neurons, side not stated” value with 뇌 허혈의 게르빌루스쥐 모델 (n=5) is 19.2 ± 7.3 개. Also, the “effect on primary myoblast differentiation and myotube formation (CPK)” value in the assay with 초대 인간 근육 세포 배양물 is “근관 형성을 명백하게 자극한다”. Also, the “effect on ejection fraction and percentage of viable myocardium after MI” value in the assay with 경색된 양 심장 is recorded as “더욱 작은 효과”. The “induction of C2C12 cell proliferation (Alamar Blue fluorescence)” value in the assay with C2C12 근육 세포 [1] is recorded as “통계학적으로 상이하였다”. Also, in the assay with mdx 마우스의 근이영양성 근육, the “increase in tetanic force of dystrophic muscle” value is ~5 %. For the substance “PSTNKNTKSQARKGSTFEEHK [짧은 펩티드 3, Arg14→Ala, three N-terminal amino acids removed]”, the “biological activity score (scale 0 to 3)” value with 단핵성 근육모세포 (수반 세포) came out at 0. As to “TNKNTKSQARKGSTFEEHK [짧은 펩티드 4, Arg14→Ala, five N-terminal amino acids removed]”, the “biological activity score (scale 0 to 3)” value with 단핵성 근육모세포 (수반 세포) worked out at 0. Turning to YQPPATNKNTKSQRRKGSTFEEHK [펩티드 2], in the assay with 단핵성 근육모세포 (수반 세포), the “biological activity score (scale 0 to 3)” value worked out at 1. On the same count and under the same terms, to YQPPSTNKNTKAQRRKGSTFEEHK [펩티드 3] belongs 3; to YQPPSTNKNTKSQAAKGSTFEEHK [펩티드 6], 0.

In the case of “YQPPSTNKNTKSQARKGSTF [짧은 펩티드 2, Arg14→Ala, four C-terminal amino acids removed]”, in the assay on 단핵성 근육모세포 (수반 세포), the “biological activity score (scale 0 to 3)” value is reported as 0.

With “YQPPSTNKNTKSQARKGSTFEE [짧은 펩티드 1, Arg14→Ala, two C-terminal amino acids removed]”, in the assay on 단핵성 근육모세포 (수반 세포), the “biological activity score (scale 0 to 3)” value is recorded as 1. Still for that read-out and setting: to YQPPSTNKNTKSQARKGSTFEEHK [펩티드 5] belongs 2; to YQPPSTNKNTKSQRRKGATFEEHK [펩티드 4], 2.

Take “YQPPSTNKNTKSQRRKGSTFEEHK [펩티드 1, human Ec peptide variant with His instead of Arg at penultimate position; no PEG, no L-D conversion]”: in the assay on 단핵성 근육모세포 (수반 세포), the “biological activity (in words)” value is listed as “활성을 거의 또는 전혀 나타내지 않았다”.

These data come from KR20080021588A, “메카노 성장 인자 펩티드 및 이들의 용도” (유씨엘 비즈니스 피엘씨, priority 2005, dated 2006).
